Source: the supplement of paper PMC10307832

How the values were obtained:
Experiment in all cases: relative viability (nuclei count vs DMSO), 5 days (fraction); higher = more cells survive
[1] = compound: CN(C)C(=N)NC(=N)N [Metformin] + CC(C)C[C@H](NC(=O)[C@H](Cc1ccccc1)NC(=O)c1cnccn1)B(O)O [Bortezomib] (partner 0.002 µM)
Outline: (§1)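 One day after seeding in 1536-well plates, lung cancer cell lines were dosed by pin tool. Dosing was either single-drug or a fixed anchor-drug dose plus five library-drug doses (not always all listed) in √10 steps. After 5 days, nuclei were stained in one fix-and-stain step and counted on 4× images, and relative viability is the nuclei count of treated wells over that of vehicle wells, given as the median of duplicate plates.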

[2] = compound: CN(C)C(=N)NC(=N)N [Metformin] + Nc1nc2[nH]cc(CCc3ccc(C(=O)N[C@@H](CCC(=O)O)C(=O)O)cc3)c2c(=O)[nH]1 [Pemetrexed] (partner 0.2 µM)
Outline: as §1

[3] = compound: N#CC1(c2ccc(NC(=O)c3cccnc3NCc3ccncc3)cc2)CCCC1 [Apatinib] + N=C(N)NC(=N)NCCc1ccccc1 [Phenformin] (partner 250 µM)
Outline: as §1

[4] = compound: CN(C)C(=N)NC(=N)N [Metformin] + CC1(C)CCC(c2ccc(Cl)cc2)=C(CN2CCN(c3ccc(C(=O)NS(=O)(=O)c4ccc(N[C@H](CCN5CCOCC5)CSc5ccccc5)c(S(=O)(=O)C(F)(F)F)c4)cc3)CC2)C1 [Navitoclax] (partner 0.5 µM)
Outline: as §1

Row | Cell Line | relative viability ([1]; first compound 10 µM) | relative viability ([1]; first compound 31.62 µM) | relative viability ([1]; first compound 100 µM) | relative viability ([1]; first compound 316.23 µM) | relative viability ([1]; first compound 1000 µM) | relative viability ([2]; first compound 10 µM) | relative viability ([2]; first compound 31.62 µM) | relative viability ([2]; first compound 100 µM) | relative viability ([2]; first compound 316.23 µM) | relative viability ([2]; first compound 1000 µM) | relative viability ([3]; first compound 0.08 µM) | relative viability ([3]; first compound 0.253 µM) | relative viability ([3]; first compound 0.8 µM) | relative viability ([3]; first compound 2.53 µM) | relative viability ([3]; first compound 8 µM) | relative viability ([4]; first compound 10 µM) | relative viability ([4]; first compound 31.62 µM) | relative viability ([4]; first compound 100 µM) | relative viability ([4]; first compound 316.23 µM) | relative viability ([4]; first compound 1000 µM)
1 | NCI-H1755 | 0.861 | 0.913 | 0.843 | 0.783 | 0.896 | 0.416 | 0.443 | 0.392 | 0.34 | 0.376 | 0.626 | 0.611 | 0.628 | 0.609 | 0.559 | 0.821 | 0.897 | 0.912 | 0.89 | 0.935
2 | EPLC-272H | 0.837 | 0.91 | 0.907 | 0.909 | 1.22 | 0.467 | 0.345 | 0.429 | 0.394 | 0.39 | 0.325 |  | 0.318 | 0.333 | 0.265 | 1.23 | 1.1 | 1.04 | 1.1 | 1.4
3 | NCI-H23 | 1.07 | 1.04 | 1.04 | 1.11 | 1.28 | 0.679 | 0.852 | 0.652 | 0.586 | 0.79 | 0.851 | 0.733 | 0.735 | 0.717 | 0.705 | 0.82 | 0.902 | 0.805 | 0.839 | 0.993
4 | NCI-H1650 | 0.208 | 0.206 | 0.232 | 0.231 | 0.231 | 0.398 | 0.428 | 0.388 | 0.404 | 0.301 |  | 0.503 | 0.35 | 0.35 | 0.318 | 1.16 | 1.34 | 1.46 | 1.37 | 1.1
5 | NCI-H1792 |  | 0.918 | 1.04 | 0.922 | 0.827 | 0.968 | 0.862 | 0.952 | 0.697 | 0.903 | 0.5 | 0.227 | 0.235 | 0.111 | 0.184 |  | 0.528 | 0.857 | 0.538 | 0.617
6 | COR-L23 | 1.04 | 0.867 | 0.86 | 0.882 | 0.99 | 0.196 | 0.186 | 0.209 | 0.195 | 0.203 | 0.5 | 0.421 | 0.427 | 0.395 | 0.438 | 0.984 | 0.839 | 0.909 | 0.932 | 1.04
7 | COR-L 105 | 1.07 | 1.05 | 1.04 | 0.874 | 1.17 | 1.12 | 1.26 | 1.33 | 1.29 | 1.1 | 0.523 | 0.598 | 0.426 | 0.45 | 0.337 | 0.812 | 0.923 | 0.843 | 0.654 | 0.571
8 | HCC-15 | 0.617 | 1.08 | 1.04 | 0.932 | 1.09 | 0.233 | 0.21 | 0.207 | 0.228 | 0.22 | 0.472 | 0.512 | 0.435 | 0.39 | 0.371 | 0.686 | 0.726 | 0.719 | 0.618 | 0.699
9 | NCI-H1666 | 0.789 | 0.942 | 0.71 | 0.828 | 0.864 | 0.825 | 0.862 | 0.854 | 0.871 | 0.928 | 0.567 | 0.572 | 0.6 | 0.53 | 0.564 | 1.17 | 1.05 | 0.956 | 0.899 | 1.07
10 | HCC-78 | 0.842 | 0.797 | 0.929 | 0.831 | 0.853 |  | 0.878 | 1.15 | 0.894 | 0.908 | 0.644 | 0.607 | 0.691 | 0.605 | 0.618 | 0.994 | 1.17 | 1.01 | 1 | 1.06
11 | A-427 | 0.997 | 1 | 0.94 | 0.963 | 0.901 | 0.972 | 1.05 | 1 | 1 | 0.878 | 0.393 | 0.387 | 0.254 | 0.3 | 0.234 | 1.01 | 1 | 0.969 | 0.978 | 0.887
12 | NCI-H596 | 1.05 | 1.13 | 1.3 | 1.27 | 1.21 | 0.582 | 0.563 | 0.546 | 0.498 | 0.539 | 0.801 | 0.724 | 0.723 | 0.705 | 0.711 | 0.985 | 1.15 | 1.1 | 0.908 | 1
13 | EMC-BAC-2 | 1.09 | 1.11 | 1.04 | 1.11 | 1.09 | 0.429 | 0.488 | 0.452 | 0.492 | 0.48 | 0.578 | 0.568 | 0.463 | 0.383 | 0.39 | 1.1 | 1.17 | 1.1 | 1.09 | 1.15
14 | NCI-H2126 | 1 | 1.11 | 1.09 | 1.09 | 1.09 | 0.648 | 0.658 | 0.672 | 0.579 | 0.71 | 0.564 | 0.501 | 0.512 | 0.521 | 0.523 | 0.788 | 0.834 | 0.842 | 0.771 | 0.787
15 | NCI-H1437 | 0.629 | 0.641 | 0.459 | 0.527 | 0.574 | 0.347 | 0.336 | 0.343 | 0.352 | 0.317 | 0.354 | 0.283 | 0.278 | 0.252 | 0.251 | 1.08 | 1.08 | 1.12 | 0.979 | 1.08
16 | LXF-289 | 0.943 | 0.904 | 0.893 | 0.933 | 1.01 | 0.74 | 0.83 | 0.756 | 0.806 | 0.784 | 0.543 | 0.527 | 0.519 | 0.496 | 0.468 | 0.912 | 0.918 | 0.939 | 0.914 | 0.901
